Here are results for 11 compounds from patent US11000512B2, “Use of DDX3 inhibitors as antiproliferative agents” (AZIENDA OSPEDALIERA UNIVERSITARIA SENESE, priority 2016, dated 2021).

In data set [1] the target is T1, Human recombinant DDX3 (DDX3 wt helicase) (Homo sapiens, UniProt O00571).
T1 construct: made in house
Briefly: Helicase assay (anti-enzymatic activity against the DDX3 helicase). The class given is biochemical. As to conditions: for activity compared with compound EI01D: DDX3 helicase inhibition relative to EI01D. The procedure: The helicase activity of DDX3 wt was monitored by measuring the conversion of a double stranded (ds) RNA (labelled at the 5′-end of one strand with a 6-FAM fluorescent) into single stranded (ss) nucleic acid. A final concentration of 25 nM RNA substrate was used in the experiments, unless otherwise stated. Reactions were performed in 50 mM TrisHCl pH 7.5, 1 mM DTT, 0.2 mg/ml BSA, 5% glycerol and 100 μM ATP, 10 mM MgCl2 at 37° C. degrees for 10′ and stopped by adding EDTA 50 mM pH 8. Products were separated through non-denaturating 8% PAGE at 5 W for 4 hours in TBE buffer at 4° C. Substrates and products were quantified by laser scanning densitometry (Thyphoon-TRIO, GE Healthcare).
Human recombinant DDX3 was cloned, expressed and purified as described (Franca et al. Proteins 2007, 67, 1128-37).

The test system of data set [2] is Human osteosarcoma cell line (U2OS). Briefly: Cytotoxicity test / growth inhibition, U2OS. It is filed as cell-based. Conditions: 48 hours, cell counting. The method, then:
(§1) Cells were purchased from American Type Culture Collection (ATCC, Manassas, Va., USA). The LNCaP (ATCC® CRL-1740™), A549 (ATCC® CCL-185™), MDA-MB-231 (ATCC® CRM-HTB-26™), 22Rv1 (ATCC® CRL-2505™), HCT-116 (ATCC® CCL-247™) and PC3 (ATCC® CRL-1435™) cells were maintained in Roswell Park Memorial Institute 1640 medium (RPMI; Euroclone, ECB9006L) supplemented with 10% fetal bovine serum (Euroclone; ECS0180L), 2 mM L-glutamine, 100 units/mL penicillin and […] streptomycin at 37° C. in an atmosphere of 5% CO2/air. DU145 (ATCC® HTB-81™), and DAOY (ATCC® HTB-186™) cells were maintained in Eagle's minimal essential medium (EMEM; Euro-clone, ECM0445L) supplemented with 10% fetal bovine serum (Euroclone; ECS0180L), 2 mM L-glutamine, 100 units/ml penicillin and […] streptomycin at 37° C. in an atmosphere of 5% CO2/air. SH-SY5Y (ATCC® CRL-2266™), DBRTG (ATCC® CRL-2020™), HeLa (ATCC® CCL-2™), HN6 cells (kindly provided by Dr Silvio Gutkind, UCSD Medical Center, Moores Cancer Center USA, Chen J. J et al, Oncotarget 2013, 4, 206-217)), U2OS (ATCC® HTB-96™), RD18 cells (kindly provided by Dr P. Boccuni Memorial Sloan-Kettering Cancer Center, New York, USA Vella S. et al. Clin Epigenetics. 2015 6; 7-82), cells were maintained in Dulbecco's modified Eagle's medium (DMEM; Euroclone, ECB7501L) supplemented with 10% fetal bovine serum (Euroclone; ECS0180L), 2 mM L-glutamine, 100 units/ml penicillin and […] streptomycin at 37° C. in an atmosphere of 5% CO2/air.
(§2) Cell lines were seeded at appropriate densities in 2 mL growth medium in 6-wells culture plates 24 hours before the treatment with the inhibitor compounds. After 24 h the culture medium was removed and fresh medium containing increasing concentrations of chemical compounds was added to cells. The fixed final concentrations were: 0.1 μM, 1 μM, 10 μM, 100 μM. DMSO was the vehicle used for dilution of the compounds and its final concentration on cells was less than 0.2%. Medium-only containing wells were included as controls. Cells were incubated 48 hours with drugs and, then, cell viability was evaluated.
(§3) Cells were detached from each well of the 6-wells plates with 300 μL of Trypsin and suspended in culture medium to a final volume of 1 mL. Cell viability was then assessed through cell counting. Cells were diluted in 1:50 ratio of an isotonic buffered diluent, Isoton (Backman Coulter), following the manufacturer's instructions, and counted using an automated cell counter (Z2 series Coulter Counter, Beckman Coulter). Each cell count was performed in three replicates. The values corresponding to the relative survival of cells in presence of each chemical compound at single concentrations were normalized to the untreated controls. Then, the half maximal inhibitory concentration (IC50) value, which represent the drug concentration that is required to induce a 50% growth inhibition in vitro, was calculated with GraphPad Prism 6.0 software using the best fitting sigmoid curve.

Data set [3] has as its system Human breast adenocarcinoma cell line (MDA-MB-231). Briefly: Cytotoxicity test / growth inhibition, MDA-MB-231. As to conditions: MDA-MB-231, 48 hours, cell counting. The class given is cell-based. The procedure: as §1, §2, §3
The nature of a further data set: Water Solubility Assay. It is filed as physicochemical. Conditions: for LogS: from aqueous solubility; for Aq. Solub.: water, room temperature, 24-36 h. The method, then:
Water Solubility Assay. Each solid compound (1 mg) was added to 1 mL of water. The samples were shaked in a shaker bath at room temperature for 24-36 h. The suspensions were filtered through a 0.45 μm nylon filter (Acrodisc), and the solubilized compound determined by LC-MS-MS assay. For each compound the determination was performed in triplicate.
For the quantification was used an LC-MS system consisted of a Varian apparatus (Varian Inc) including a vacuum solvent degassing unit, two pumps (212-LC), a Triple Quadrupole MSD (Mod. 320-LC) mass spectrometer with ES interface and Varian MS Workstation System Control Vers. 6.9 software. Chromatographic separation was obtained using a Pursuit C18 column (50×2.0 mm) (Varian) with 3 μm particle size and gradient elution: eluent A being ACN and eluent B consisting of water. […] The flow rate was 0.2 mL min^−1 and injection volume was 5 μL. The instrument operated in positive mode and parameters were: detector 1850 V, drying gas pressure 25.0 psi, desolvation temperature 300.0° C., nebulizing gas 40.0 psi, needle 5000 V and shield 600 V. Nitrogen was used as nebulizer gas and drying gas. Collision induced dissociation was performed using Argon as the collision gas at a pressure of 1.8 mTorr in the collision cell. Microsomal Stability Assay. […] The reaction was stopped by cooling on ice and adding 1.0 mL of acetonitrile. The reaction mixtures were then centrifuged, and the parent drug and metabolites were subsequently determined by LC-UV-MS. Chromatographic analysis was performed with an Agilent 1100 LC/MSD VL system (G1946C) (Agilent Technologies, Palo Alto, Calif.) constituted by a vacuum solvent degassing unit, a binary high-pressure gradient pump, an 1100 series UV detector, and an 1100 MSD model VL benchtop mass spectrometer.

A short description of data set [4]: Parallel Artificial Membrane Permeability Assay (PAMPA), GI. It is filed as in vitro ADME. As to conditions: GI (intestinal) PAMPA, value in brackets. The procedure:
Parallel Artificial Membrane Permeability Assay (PAMPA). Donor solution (0.5 mM) was prepared by diluting 1 mM dimethylsulfoxide (DMSO) compound stock solution using phosphate buffer (pH 7.4, 0.025 M). Filters were coated with 5 μL of a 1% (w/v) dodecane solution of phosphatidylcholine prepared from CHCl3 solution 10% w/v, for intestinal permeability. Donor solution (150 μL) was added to each well of the filter plate. To each well of the acceptor plate were added 300 μL of solution (50% DMSO in phosphate buffer). All compounds were tested in three different plates on different days. The sandwich was incubated for 5 h at room temperature under gentle shaking. After the incubation time, the plates were separated, and samples were taken from both receiver and donor sides and analyzed using LC with UV detection at 280 nm.
LC analysis were performed with a Varian Prostar HPLC system (Varian Analytical Instruments, USA) equipped with a binary pump with a manual injection valve and model Prostar 325 UV-VIS Detector. Chromatographic separations were conducted using a Polaris C18-A column (150-4.6 mm, 5 μm particle size) at a flow rate of 0.8 mL min^−1 with a mobile phase composed of 60% ACN/40% H2O.
Permeability (Papp) for PAMPA was calculated according to the following equation, obtained from Wohnsland and Faller and Sugano et al. equation with some modification in order to obtain permeability values in cm s^−1,
where VA is the volume in the acceptor well, VD is the volume in the donor well (cm^3), A is the “effective area” of the membrane (cm^2), t is the incubation time (s) and r the ratio between drug concentration in the acceptor and equilibrium concentration of the drug in the total volume (VD+VA). Drug concentration is estimated by using the peak area integration.
Membrane retentions (%) were calculated according to the following equation: […]
where r is the ratio between drug concentration in the acceptor and equilibrium concentration, D, A, and Eq represented drug concentration in the donor, acceptor and equilibrium solution, respectively.
On the technique in general: In PAMPA a lipid-coated filter parts donor from acceptor wells.

Data set [5] concerns Human head and neck squamous carcinoma cell line (HN6). Briefly: Cytotoxicity test / growth inhibition, HN6. As to conditions: HN6, 48 hours, cell counting. The class given is cell-based. The procedure:
as §1, §2, §3

The test system of data set [6] is Human adenocarcinomic alveolar basal epithelial cell line (A549). Briefly: Cytotoxicity test / growth inhibition, A549. Conditions: A549, 48 hours, cell counting. It is filed as cell-based. The procedure: as §1, §2, §3

T1 sequence (O00571 whole entry): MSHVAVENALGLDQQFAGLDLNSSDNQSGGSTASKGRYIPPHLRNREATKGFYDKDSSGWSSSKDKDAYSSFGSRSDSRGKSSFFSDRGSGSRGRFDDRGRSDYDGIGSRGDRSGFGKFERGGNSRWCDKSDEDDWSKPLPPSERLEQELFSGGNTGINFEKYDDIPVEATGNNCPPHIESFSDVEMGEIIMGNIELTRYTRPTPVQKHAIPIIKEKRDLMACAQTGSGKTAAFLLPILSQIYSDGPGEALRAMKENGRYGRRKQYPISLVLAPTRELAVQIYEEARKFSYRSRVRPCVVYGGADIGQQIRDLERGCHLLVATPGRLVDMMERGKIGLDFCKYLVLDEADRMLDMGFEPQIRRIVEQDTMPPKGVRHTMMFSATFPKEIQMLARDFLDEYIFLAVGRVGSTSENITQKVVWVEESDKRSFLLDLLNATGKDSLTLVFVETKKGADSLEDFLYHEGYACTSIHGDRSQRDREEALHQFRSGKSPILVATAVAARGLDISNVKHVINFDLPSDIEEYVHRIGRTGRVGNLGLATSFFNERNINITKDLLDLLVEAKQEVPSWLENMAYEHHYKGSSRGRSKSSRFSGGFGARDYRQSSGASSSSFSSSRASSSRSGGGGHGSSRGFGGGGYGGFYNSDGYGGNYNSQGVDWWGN

Take `CC(C)CCc1cn(-c2ccc(NC(=O)Nc3ccccc3C(F)(F)F)cn2)nn1` [Compound 86, 1-(6-(4-isopentyl-1H-1,2,3-triazol-1-yl)pyridin-3-yl)-3-(2-(trifluoromethyl)phenyl)urea]: the IC50 in data set [1] (DDX3 helicase activity, dsRNA unwinding, n.a = Compound not active, read-out: ID50 (the source's name)) turned out to be 51 µM.
In turn, `CCCCc1nnc(-c2ccc(NC(=O)Nc3ccccc3C(F)(F)F)cc2)s1` [Compound 124, 1-(4-(5-butyl-1,3,4-thiadiazol-2-yl)phenyl)-3-(2-(trifluoromethyl)phenyl)urea] registered an IC50 in data set [2] of 60.1 µM.
Consider `CCOCn1nnc(-c2ccc(NC(=O)Nc3ccccc3C)cc2)n1` [Compound 50, 1-(4-(2-(ethoxymethyl)-2H-tetrazol-5-yl)phenyl)-3-(o-tolyl)urea], for which, in data set [3], the IC50 was 23.5 µM.
`Cc1ccccc1NC(=O)Nc1ccc(-n2cc(CCC(C)C)nn2)cc1` [Compound 20b, 1-(4-(4-isopentyl-1H-1,2,3-triazol-1-yl)phenyl)-3-o-tolylurea]: in “Water Solubility Assay”, the LogS is below −8.6 and the “Aq. Solub.” value is below 0.001 µg/mL. For the same compound, in data set [4], the “PAMPA GI (RM %) membrane retention” value is 26.7%.
As for `CCCC(C)C(F)c1cn(-c2ccc(NC(=O)Nc3ccccc3C(F)(F)F)cc2)nn1` (stereo not shown) [Compound 42c, 1-(4-(4-(1-fluoro-2-methylpentyl)-1H-1,2,3-triazol-1-yl)phenyl)-3-(2-(trifluoromethyl)phenyl) urea], the IC50 in data set [2] turned out to be 22.5 µM; in data set [3] it was 33.6 µM; in data set [5] it was 6.32 µM; in data set [6], 57.2 µM.
On to `Cc1c(Cl)cccc1NC(=O)Nc1ccc(-n2cc(CCC(C)C)nn2)cc1` [Compound 21b, 1-(3-chloro-2-methylphenyl)-3-(4-(4-isopentyl-1H-1,2,3-triazol-1-yl)phenyl)urea], for which, in “Water Solubility Assay”, the LogS is listed as below −8.6 and the “Aq. Solub.” value is below 0.001 µg/mL. For the same compound, in data set [4], the “PAMPA GI (RM %) membrane retention” value amounted to 59.1%.
Regarding `CC(C)CCc1cn(-c2ccc(NC(=O)Nc3cccc(F)c3)cc2)nn1` [Compound 55b, 1-(3-fluorophenyl)-3-(4-(4-isopentyl-1H-1,2,3-triazol-1-yl)phenyl)urea], in data set [1], the “activity compared with compound EI01D” value is “approximately ten-fold more active”.
Take `COCCc1cn(-c2ccc(NC(=O)Nc3ccccc3C)cc2)nn1` [Compound 20f, 1-(4-(4-(2-methoxyethyl)-1H-1,2,3-triazol-1-yl)phenyl)-3-o-tolylurea]: the “PAMPA GI (RM %) membrane retention” value in data set [4] is listed as 7.4%.
In the case of `CC(C)CCc1cn(-c2ccc(NC(=O)Nc3ccccc3F)cc2)nn1` [Compound 55a, 1-(2-fluorophenyl)-3-(4-(4-isopentyl-1H-1,2,3-triazol-1-yl)phenyl)urea], in data set [1], the “activity compared with compound EI01D” value is reported as “approximately ten-fold more active”.
With `CC(C)CCc1cn(-c2ccc(NC(=O)Nc3ccccc3C(F)(F)F)cc2)nn1` [Compound 22b, 1-(4-(4-isopentyl-1H-1,2,3-triazol-1-yl)phenyl)-3-(2-(trifluoromethyl)phenyl)urea], the IC50 in data set [3] was found to be 13.1 µM. For the same compound, in the data set “Water Solubility Assay”, the LogS is listed as below −8.6. For the same compound, in data set [4], the “PAMPA GI (RM %) membrane retention” value was found to be 24.8%. Also, the “activity compared with compound EI01D” value in data set [1] is reported as “approximately ten-fold more active”.
`CCCCn1nnc(-c2ccc(NC(=O)Nc3ccccc3C(F)(F)F)cc2)n1` [Compound 51, 1-(4-(2-butyl-2H-tetrazol-5-yl)phenyl)-3-(2-(trifluoromethyl)phenyl)urea]: the IC50 in data set [2] worked out at 51.5 µM; in data set [5] it was 16.4 µM.
